From PubChem BioAssay (NCI)
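1) Cells in 96-well plates. 2) Compound, 48 h, 5 concentrations. 3) Linear interpolation between surrounding doses. 4) Unreached endpoint = highest concentration. TGI: concentration producing complete growth inhibition.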

Tests used:
Experiment in all cases: NCI tumour cell line growth inhibition, 48 h
[1] = tested on: K-562 leukemia
[2] = tested on: HL-60(TB) leukemia
[3] = tested on: TK-10 renal
[4] = tested on: A498 renal
[5] = tested on: RXF 393 renal
[6] = tested on: CCRF-CEM leukemia
[7] = tested on: EKVX NSCLC
[8] = tested on: COLO 205 colon
[9] = tested on: HS 578T breast
[10] = tested on: MALME-3M melanoma
[11] = tested on: PC-3 prostate
[12] = tested on: NCI-H23 lung
[13] = tested on: BT-549 breast
[14] = tested on: ACHN renal
[15] = tested on: MDA-N
[16] = tested on: HCC-2998 colon
[17] = tested on: SNB-75 CNS
[18] = tested on: KM12 colon
[19] = tested on: SF-268 CNS
[20] = tested on: HCT-116 colon
[21] = tested on: HCT-15 colon
[22] = tested on: UACC-257 melanoma
[23] = tested on: UO-31 renal
[24] = tested on: OVCAR-5 ovarian
[25] = tested on: U251 CNS
[26] = tested on: MDA-MB-231 breast
[27] = tested on: SW-620 colon
[28] = tested on: A549 NSCLC
[29] = tested on: SF-295 CNS
[30] = tested on: SN12C renal
[31] = tested on: LOX IMVI melanoma
[32] = tested on: CAKI-1 renal
[33] = tested on: SNB-19 CNS
[34] = tested on: SK-MEL-28 melanoma
[35] = tested on: MCF7 breast
[36] = tested on: OVCAR-8 ovarian
[37] = tested on: SF-539 CNS
[38] = tested on: SK-MEL-5 melanoma
[39] = tested on: HT29 colon
[40] = tested on: M14 melanoma
[41] = tested on: DU-145 prostate
[42] = tested on: UACC-62 melanoma
[43] = tested on: RPMI-8226 leukemia
[44] = tested on: NCI-H226 lung
[45] = tested on: 786-0 renal
[46] = tested on: HOP-62 NSCLC
[47] = tested on: SK-OV-3 ovarian
[48] = tested on: NCI-H522 lung
[49] = tested on: T-47D breast
[50] = tested on: IGROV1 ovarian
[51] = tested on: MOLT-4 leukemia
[52] = tested on: SR leukemia
[53] = tested on: MDA-MB-435

Measured: TGI

Nc1nc2cc(Cl)ccc2n1N
> 100 µM: all assays above
